Measurements taken from patent US5242945A, “Tetronic and thiotetronic acid derivatives as phospholipase A2 inhibitors” (American Home Products Corporation, priority 1991, dated 1993).

Assays:
[1] = system: purified PLA2, from the diamond back cotton mouth snake (A. piscivorus piscivorus); test: in vivo PLA2 murine paw edema assay; set-up: species or system A. piscivorus piscivorus PLA2 in CD-1 mice
Description: The ability of the compounds of the invention to inhibit paw edema induced by the exogenous administration of PLA2 is measured in the in vivo PLA2 murine paw edema assay.
Non-fasted, male CD-1 mice (8 weeks old; 31-36 grams) are placed in plastic boxes in groups of six. The right hind paw volume is measured using mercury plethysmography (zero time). Compounds are dosed orally (0.5 mL of 0.5% Tween-80) 1 or 3 hours prior to PLA2 injection or intravenously (0.2 mL in 0.3% dimethylsulfoxide/saline) 3 minutes prior to PLA2 injection. A solution of purified PLA2, from the diamond back cotton mouth snake (A. piscivorus piscivorus) is prepared in saline at a concentration of 6 μg/mL. Fifty (50) μL (0.3 μg) of this PLA2 solution is injected subcutaneously into the right hind paw with a plastic 1 mL plastic syringe (27 gauge, 1" needle). Paw volume of the injected paw is measured again at 10 minutes, 30 minutes and 60 minutes after PLA2 injection. Animals are euthanized with CO2 at the completion of the study.
The paw edema is calculated by subtracting the zero time volume from the volume recorded at each time period. Mean paw edema for each treatment group is then calculated and expressed as (μL±S.E.). Drug effects are expressed as a percent change from control (vehicle) values. Statistical significance is determined by a one-way analysis of variance with LSD comparison to control (p<0.05). ED50 's are determined using […].

AA-induced ear edema = test: arachidonic acid (AA)-induced murine ear edema assay; format: in vivo, mouse (Swiss Webster); details: for ED50: Mus musculus, 1 h, oral
TPA-induced ear edema = test: 12-o-tetradecanoylphorbol acetate (TPA)-induced murine ear edema assay; format: in vivo, mouse (Swiss Webster); details: oral, TPA-induced
Description: The ability of the compounds of the invention to inhibit inflammatory responses is examined in the in vivo arachidonic acid (AA)/12-o-tetradecanoylphorbol acetate (TPA)-induced murine ear edema assay.
Swiss Webster female mice (Buckshire), approximately 8 weeks old are placed into plastic boxes in groups of six. Eight groups of mice receive AA topically on the right ear, and another 8 groups receive TPA topically on the right ear. AA and TPA are dissolved in acetone at concentrations of 100 mg/ml and 100 μg/ml respectively. The phlogistics are applied to the right ear by the means of an automatic pipet. Volumes of 10 μl are applied to the inner and outer surfaces of the ear. Each mouse receives either 2 mg/ear AA or 2 μg/ear TPA. The left ear (control) receives acetone delivered in the same manner. Topical and subcutaneous dosing regimens are as follows 1) drugs are given 30 minutes prior to AA treatment and 2) drugs are given 30 minutes after treatment with TPA.
Measurements are taken with Oditest calipers, 0-10 mm with 0.01 graduations. The right and left ears are measured after 1 hr AA-induced inflammation and 4 hours after TPA-induced inflammation.
The difference between right and left ear thickness is calculated and the significance is determined by a one way analysis of variance with Dunnett's comparisons to control (P=0.05). Drug effects are expressed as a percent change from control values: [formula]

[2] = system: lipoxygenase (LTB4 or 5HETE synthesis); test: inhibition of LTB4 and 5-HETE synthesis by rat glycogen-elicited polymorphonuclear leukocytes; format: cell-based, rat (female Wistar); details: Leukocyte; at 10 μM; rat PMN; + with * denotes potentiation; read-out: % Inhibition LTB4
Text: This is especially true with respect to 5,12-diHETE, which is also denoted as LTB4 [see Ford-Hitchinson, J. Roy. Soc. Med., 74, 831 (1981)]. Compounds which inhibit the PLA2 -mediated release of arachidonic acid thereby effectively prevent the oxidation of arachidonic acid to the various leukotriene products via the lipoxygenase cascade. Accordingly, the specificity of action of PLA2 inhibitors can be determined by the activity of test compounds in this assay, which measures the ability of compounds to inhibit the synthesis of LTB4 and 5-HETE by rat glycogen-elicited polymorphonuclear leukocytes (PMN) in the presence of exogenous substrate.
(§1) Rat polymorphonuclear leukocytes (PMNs) are obtained from female Wistar rats (150-200 g) which receive an injection of 6% glycogen (10 ml i.p.). Rats are sacrificed 18-24 hours post injection by CO2 asphyxiation and the elicited cells are harvested by peritoneal lavage using physiological saline (0.9% NaCl). The exudate is centrifuged at 400 xg for 10 minutes. The supernatant fluid is discarded and the cell pellet is resuspended to a concentration of 2.0×10^7 cells/mL in HBSS containing Ca^++ and Mg^++ and 10 μM L-cysteine.
(§2) To 1 mL aliquots of cell suspension, test drugs or vehicle are added, then preincubated at 37° C. for 10 minutes. A23187 (1 μM), [^3 H]-AA (3.0 μCi/mL) and unlabeled AA (1 μM) are then added and the samples are further incubated for 10 minutes. The reaction is terminated by centrifugation and pelleting cells. Supernatants are then analyzed by HPLC analysis on a 15 cm×4.6 mm ID supelcosil LC-18 (Supelco)(3M) column, using a two solvent system at a flow rate of 1.4 mL total flow as follows:
Injections: 140 μL of each supernatant is injected directly onto column and ^3 H arachidonic acid metabolites are monitored using an on-line radioactivity detector (Ramona, IN/US, Fairfield, N.J.).
Co-chromatography with standard [^3 H] leukotriene B4 (LTB4) in medium of stimulated PMN exposed to drug is compared to that found in medium of stimulated cells exposed to no drug, generating percent inhibition.
Results are expressed as percent inhibition at a given compound dose or as an IC50 value.

[3] = system: cyclooxygenase (PGE2 or TxB2 synthesis); test: inhibition of synthesis of cyclooxygenase products PGE2 and TxB2 by rat polymorphonuclear leukocytes; format: cell-based, rat (female Wistar); details: Leukocyte; at 10 μM; rat PMN; + with * denotes potentiation; read-out: % Inhibition TxB2
Description: as §1, §2
In this assay, the procedure of Example 58 is carried out as described. However, in order to determine cyclooxygenase activity, the samples are co-chromatographed with authentic reference [^3 H]-TxB2 or [^3 H]-PGE2.
The results are calculated as in Example 58 and presented below: […]

human platelet PLA2 = molecular target: T1, human platelet PLA2 (Homo sapiens, UniProt P14555); test: in vitro isolated phospholipase A2 assay, human platelet PLA2; format: biochemical; details: at 10 μM; + values given without explanation; read-out: % Inhibition HP (human platelet)
T1 construct: platelet acid extract PLA2; from tissue; host or cells: human platelets, semipurified acid extract
T1 sequence (P14555 21-144): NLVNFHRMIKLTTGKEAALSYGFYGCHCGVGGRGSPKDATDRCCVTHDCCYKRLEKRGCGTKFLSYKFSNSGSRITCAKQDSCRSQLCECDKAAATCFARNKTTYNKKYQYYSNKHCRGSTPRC
Summary of the method: (§3)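 PLA2 from semipurified human platelet acid extract or purified human synovial fluid, preincubated 30 min at room temperature with compound. ³H-arachidonate-labelled E. coli substrate then added in Tris-HCl pH 7.5, with enzyme giving about 12% hydrolysis. Reaction ran 10 min at 37° C; released arachidonic acid recovered on NH2 columns and measured by β-counting.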

[4] = molecular target: T2, human synovial fluid PLA2 (Homo sapiens, UniProt P14555); test: in vitro isolated phospholipase A2 assay, human synovial fluid PLA2; format: biochemical; details: for IC50: Table IV, read-out: IC50 HSF (human synovial fluid); for inhibition at 10 µM: + values given without explanation, read-out: % Inhibition HSF (human synovial fluid)
T2 construct: Purified human synovial fluid; from tissue; host or cells: human synovial fluid
T2 sequence (P14555 21-144): T1 sequence (P14555 21-144)
Summary of the method: as §3

carrageenan paw edema = test: rat carrageenan paw edema assay; format: in vivo, rat (Sprague-Dawley); details: 50 mg/kg peroral
Description: The compounds of the invention are further tested in the rat carrageenan paw edema assay to determine their ability to inhibit the acute inflammatory response.
140-180 g Male Sprague-Dawley rats, in groups of 6 animals are injected subcutaneously in the right paw with 0.1 mL of 1% carrageenan at zero time. Mercury plethysmographic readings (mL) of the paw are made at zero time and 3 hours later. Test compounds are suspended or dissolved in 0.5% methylcellulose and given perorally 1 hour prior to carrageenan administration.
The increase in paw volume (edema in mL) produced by the carrageenan is measured. Paw edema is calculated (3 hour volume minus zero time volume), and percent inhibition of edema is determined. Unpaired Student's t-test is used to determine statistical significance.

[5] = system: lipoxygenase and/or cyclooxygenase pathways of arachidonic acid metabolism; test: in vivo murine zymosan peritonitis assay; set-up: species or system mouse (CD-1); details: for ED50 LTC4: p.o.
Description: The compounds of the invention are evaluated for their ability to inhibit the lipoxygenase and/or cyclooxygenase pathways of arachidonic acid metabolism in the in vivo murine zymosan peritonitis assay.
Male CD-1 mice (8 weeks old) are placed in plastic boxes in groups of six. Animals are injected with 1 mL i.p. of either 1% zymosan in pyrogen free 0.9% saline or saline (unstimulated control). Compounds are dosed orally 1 hour prior to zymosan injection. Twenty minutes after zymosan injection, the mice are asphyxiated by CO2 inhalation and the peritoneal cavity is lavaged with 2 mL ice cold Hanks Balanced Salt Solution (HBSS) without CaCl2, MgSO4. 7H2 O and MgCl2.6H2 O. Peritoneal lavage fluid from each mouse is removed by syringe and placed in 5 mL plastic test tubes put on ice and volume is noted. Preparation of samples for evaluation by ELISA is as follows: Samples are centrifuged at 800 xg for 15 minutes; 1 mL of the supernatant is added to 8 mL ice cold methanol and kept at -70° C. overnight to precipitate protein; and samples are then centrifuged at 800 xg for 15 minutes, followed by a drying procedure in a Savant speed vac concentrator. The samples are reconstituted with 1 mL ice cold ELISA buffer and stored at -70° C. until assayed. The assay for eicosanoids (LTC4 and 6-keto-PGF1α) is performed according to conventional ELISA procedures.
Compounds to be tested orally are suspended in 0.5% Tween 80. Compounds to be tested intraperitoneally are suspended in 0.5% methylcellulose in 0.9% saline.
The total metabolite level in lavage fluid/mouse is calculated and the significance is determined by a one-way analysis of variance with LSD comparisons to control (p≤0.05). Drug effects are expressed as a percent change from control values.

Q: How did the “ED50 at +10 min.” value ([1]; p.o., at +10 min) turn out when `NC1=NN(c2cccc(C(F)(F)F)c2)CC1` [BW 755c, reference compound] was run?
A: 50 mg/kg

Q: What about the ED50 (AA-induced ear edema) of the same compound?
A: 65 mg/kg

Q: And the ED50 (TPA-induced ear edema; Mus musculus, 4 h, read-out: Oral ED50 (TPA))?
A: 88 mg/kg

Q: What does the source list for `O=C(/C=C/c1cccc([N+](=O)[O-])c1)C1=C(O)COC1=O` [Example 12, (E)-4-Hydroxy-3-(3-(3-nitrophenyl)-1-oxo-2-propenyl)-2 (5H)-furanone]?
A: inhibition at 10 µM [2]: 5%; inhibition at 10 µM [3]: 9%; inhibition at 10 µM (human platelet PLA2): 11%; IC50 [4]: 2000 nM; inhibition at 10 µM [4]: 82%; % Change in Edema 10 min ([1]; 10 mg/kg i.v.): -11%; % Change in Edema 30 min ([1]; 10 mg/kg i.v.): -19%; % Change in Edema 60 min ([1]; 10 mg/kg i.v.): +24%; % Change in Edema 10 min ([1]; 100 mg/kg p.o.): -27%; % Change in Edema 30 min ([1]; 100 mg/kg p.o.): -33%; % Change in Edema 60 min ([1]; 100 mg/kg p.o.): -2%; % Inhibition (carrageenan paw edema): 30%

Q: With `O=C1CCN(c2ccccc2)N1` [Phenidone] as the compound, how does the ED50 (AA-induced ear edema) read?
A: 85 mg/kg

Q: How did the “ED50 LTC4” value [5] turn out when `CC(C)Cc1ccc(C(C)C(=O)O)cc1` (stereo not shown) [Ibuprofen] was run?
A: Not Active

Q: Which results are given for `COc1ccc2c(c1)c(CC(=O)O)c(C)n2C(=O)c1ccc(Cl)cc1` [indomethacin]?
A: % Inhibition LTC4 ([5]; 10 mg/kg p.o.): +25%; ED50 LTC4 [5]: Not Active; Oral ED50 (AA) (AA-induced ear edema): inactive at 10; Oral ED50 (TPA) (TPA-induced ear edema): inactive at 10

Q: For `COc1ccc(/C=C/C(=O)C2=C(O)COC2=O)cc1` [Example 6, (E)-4-Hydroxy-3-(3-(4-methoxyphenyl)-1-oxo-2-propenyl)-2 (5H)-furanone], which inhibition at 10 µM (human platelet PLA2) is on record?
A: 0%

Q: What about the IC50 [4] of the same compound?
A: 8700 nM

Q: And the inhibition at 10 µM [4]?
A: 59%

Q: And the “% Inhibition” value (carrageenan paw edema)?
A: 31%

Q: Which results are given for `O=C(/C=C/c1ccc(Cl)cc1)C1=C(O)COC1=O` [Example 7, (E)-4-Hydroxy-3-(3-(4-chlorophenyl)-1-oxo-2-propenyl)-2(5H)-furanone]?
A: inhibition at 10 µM [2]: 13%; inhibition at 10 µM [3]: 18%; inhibition at 10 µM (human platelet PLA2): 0%; IC50 [4]: 1800 nM; inhibition at 10 µM [4]: 98%; % Change in Edema 10 min ([1]; 10 mg/kg i.v.): -19%; % Change in Edema 30 min ([1]; 10 mg/kg i.v.): +39%; % Change in Edema 60 min ([1]; 10 mg/kg i.v.): +15%; % Change in Edema 10 min ([1]; 100 mg/kg p.o.): -24%; % Change in Edema 30 min ([1]; 100 mg/kg p.o.): -4%; % Change in Edema 60 min ([1]; 100 mg/kg p.o.): -9%; % Inhibition (carrageenan paw edema): 47%
